Test results published in ChEMBL document CHEMBL5532648, “Development of a specific and potent IGF2BP1 inhibitor: A promising therapeutic agent for IGF2BP1-expressing cancers” (Eur J Med Chem, 2024).
Calls of active or inactive are those of the source. No cut-off for these calls is given here.

What was measured:
[1] = target: T1, Insulin-like growth factor 2 mRNA-binding protein 1 (Homo sapiens, UniProt Q9NZI8); test: Inhibition of human IGF2BP1 transfected in RKO cells incubated for 24 hrs by split-luciferase assay; format: cell-based
[2] = test system: NCI-H1299; test: Inhibition of wound healing in human NCI-H1299 cells by IncuCyte live-cell imaging analysis; format: functional, cell-based
[3] = test system: NCI-H1299; test: Inhibition of wound healing in human NCI-H1299 cells at 1.25 to 5 uM by IncuCyte live-cell imaging analysis; format: functional, cell-based; settings: dose 1.25-5 µM
[4] = test system: RKO; test: Induction of apoptosis in human RKO cells; format: functional, cell-based
[5] = test system: HCT-116; test: Antiproliferative activity against human HCT-116 cells; format: functional, cell-based
[6] = target: T1, Insulin-like growth factor 2 mRNA-binding protein 1; test: Binding affinity to recombinant full-length human IGF2BP1 KH34 domain by MST assay
[7] = test system: LKR-M cell; test: Inhibition of wound healing in mouse LKR-M cells transfected with GFP at 5 uM by IncuCyte live-cell imaging analysis; format: functional, cell-based
[8] = test system: LKR-M cell; test: Antiproliferative activity against mouse LKR-M cells transfected with GFP-IGF2BP1 at 1.25 uM; format: functional, cell-based
[9] = test system: LKR-M cell; test: Antiproliferative activity against mouse LKR-M cells transfected with GFP; format: functional, cell-based
[10] = test system: SW480; test: Inhibition of cell migration in IGF2BP1 knockout human SW480 cells at 2 uM; format: functional, cell-based
[11] = test system: NCI-H1299; test: Antiproliferative activity against human NCI-H1299 cells at 1.25 to 5 uM; format: functional, cell-based; settings: dose 1.25-5 µM
[12] = test system: LKR-M cell; test: Antiproliferative activity against mouse LKR-M cells transfected with GFP-IGF2BP1; format: functional, cell-based
[13] = test system: NCI-H1299; test: Antiproliferative activity against human NCI-H1299 cells; format: functional, cell-based
[14] = test system: SW480; test: Inhibition of cell migration in human SW480 cells at 2 uM; format: functional, cell-based
[15] = test system: SW480; test: Induction of apoptosis in human SW480 cells; format: functional, cell-based; settings: dose 2-4 µM
[16] = test system: HCT-116; test: Induction of apoptosis in human HCT-116 cells; format: functional, cell-based; settings: dose 2-4 µM
[17] = test system: LKR-M cell; test: Inhibition of wound healing in mouse LKR-M cells transfected with IGF2BP1 at 5 uM by IncuCyte live-cell imaging analysis; format: functional, cell-based

T1 sequence (Q9NZI8 whole entry): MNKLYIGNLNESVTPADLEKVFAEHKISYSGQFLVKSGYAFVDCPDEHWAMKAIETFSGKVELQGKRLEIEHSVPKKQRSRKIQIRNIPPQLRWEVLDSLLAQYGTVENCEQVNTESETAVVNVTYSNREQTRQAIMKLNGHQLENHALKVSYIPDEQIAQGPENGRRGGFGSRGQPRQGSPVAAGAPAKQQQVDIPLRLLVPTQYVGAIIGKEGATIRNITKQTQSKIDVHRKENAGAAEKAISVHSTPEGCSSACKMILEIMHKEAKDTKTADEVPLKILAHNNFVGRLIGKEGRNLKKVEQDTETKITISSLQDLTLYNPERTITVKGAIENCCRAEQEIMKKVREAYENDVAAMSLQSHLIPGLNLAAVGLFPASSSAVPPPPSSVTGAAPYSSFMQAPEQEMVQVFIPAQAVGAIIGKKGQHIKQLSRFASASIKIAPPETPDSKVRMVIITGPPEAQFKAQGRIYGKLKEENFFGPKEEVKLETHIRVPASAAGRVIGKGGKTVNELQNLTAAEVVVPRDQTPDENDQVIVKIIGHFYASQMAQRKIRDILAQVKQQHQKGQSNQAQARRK

inhibition [1]	IC50 [2]	Structure (SMILES)	further results
inactive		Cc1ccc(N2CCN(C(=O)c3ccc(Cn4cnnn4)cc3)CC2)cc1	
inactive		Cc1ccc(N2CCN(C(=O)c3ccc(Cn4cncn4)cc3)CC2)cc1	
inactive		N#C[Se]Cc1ccc(C(=O)N2CCN(c3ccc4c(c3)OCO4)CC2)cc1	
inactive		O=C(c1ccc(Cn2cnc([N+](=O)[O-])n2)cc1)N1CCN(c2ccc3c(c2)OCO3)CC1	
Active	30 µM	NC(=S)NCc1ccc(C(=O)N2CCCC(Nc3ccc4c(c3)OCO4)C2)cc1 (centres undefined)	
Active	4.5 µM	NC(=S)NCc1ccc(C(=O)N2CCN(c3ccc4c(c3)OCO4)CC2)cc1	inhibition [3]: Active
inactive		O=C(c1ccc(Cn2cnnn2)cc1)N1CCN(c2ccc3c(c2)OCO3)CC1	
Active	2.5 µM	Cc1ccc(N2CCN(C(=O)c3ccc(Cn4cc(CO)c5ccccc54)cc3)CC2)cc1	inhibition [3]: Active
Active	10 µM	O=C(c1ccc(Cn2cnnn2)cc1)N1CCCC(Nc2ccc3c(c2)OCO3)C1 (centres undefined)	
Active		O=C(c1ccc(Cn2ccnc2)cc1)N1CCCC(Nc2ccc3c(c2)OCO3)C1 (centres undefined)	
inactive		Cc1ccc(N2CCN(C(=O)c3ccc(CN4CCOCC4)cc3)CC2)cc1	
	0.7 µM	O=C(c1ccc(Cn2cc(CO)c3ccccc32)cc1)N1CCN(c2ccc3c(c2)OCO3)CC1	Activity [4]: inactive; Activity [5]: Dose-Dependent Effect; inhibition [3]: Active; Kd [6]: 0.84 µM; inhibition [7]: inactive; Activity [8]: Active; Activity [9]: inactive; inhibition [10]: inactive; Activity [11]: Active; Activity [12]: Dose-Dependent Effect; Activity [13]: Dose-Dependent Effect; inhibition [14]: Active; Activity [15]: Dose-Dependent Effect; Activity [16]: Dose-Dependent Effect; inhibition [17]: Active
Active	8 µM	Cc1ccc(N2CCN(C(=O)c3ccc(Cn4cnc([N+](=O)[O-])n4)cc3)CC2)cc1	inhibition [3]: Active
Active		O=C(c1ccc(CN2CCOCC2)cc1)N1CCCC(Nc2ccc3c(c2)OCO3)C1 (centres undefined)	
Active	> 100 µM	O=C(c1ccc(CN2CCOCC2)cc1)N1CCN(c2ccc3c(c2)OCO3)CC1	
inactive		Cc1ccc(N2CCN(C(=O)c3ccc(CN4CCCC4)cc3)CC2)cc1	
Active	> 100 µM	O=C(c1ccc(CN2CCCC2)cc1)N1CCN(c2ccc3c(c2)OCO3)CC1	
Active		O=C(c1ccc(Cn2cncn2)cc1)N1CCCC(Nc2ccc3c(c2)OCO3)C1 (centres undefined)	
inactive		O=C(c1ccc(Cn2cncn2)cc1)N1CCN(c2ccc3c(c2)OCO3)CC1	
inactive		Cc1ccc(N2CCN(C(=O)c3ccc(CNC(N)=S)cc3)CC2)cc1	
inactive		O=C(c1ccc(Cn2ccnc2)cc1)N1CCN(c2ccc3c(c2)OCO3)CC1	
Active	20 µM	O=C(c1ccc(Cn2cnc([N+](=O)[O-])n2)cc1)N1CCCC(Nc2ccc3c(c2)OCO3)C1 (centres undefined)	
Active		O=C(c1ccc(CN2CCCC2)cc1)N1CCCC(Nc2ccc3c(c2)OCO3)C1 (centres undefined)	
inactive		Cc1ccc(N2CCN(C(=O)c3ccc(Cn4ccnc4)cc3)CC2)cc1	

Structure (SMILES)	inhibition [1]	IC50 [2]	further results
Cc1ccc(N2CCN(C(=O)c3ccc(C[Se]C#N)cc3)CC2)cc1	inactive		
N#C[Se]Cc1ccc(C(=O)N2CCCC(Nc3ccc4c(c3)OCO4)C2)cc1 (centres undefined)	Active	10 µM	inhibition [3]: Active
